Reference: patent publication US11306078B2, “Piperidine CXCR7 receptor modulators” (IDORSIA PHARMACEUTICALS LTD., priority 2016, dated 2022)

Target: human chemokine receptor CXCR7 (Homo sapiens (Human), UniProt P25106)
Experiment: Tango CXCR7-bla U2OS beta-arrestin recruitment assay (beta-lactamase reporter, FRET), antagonism of CXCL12/SDF1-α;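 note: compounds preincubated 15 min before CXCL12 addition, then 22 h at 37 °C, FRET emission ratio read with CCF4-AM substrate after 2 h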
Assay type: cell-based
Conditions: antagonistic effect on CXCR7; Tango CXCR7-bla U2OS cells, CXCL12/SDF1-α at its EC80

Chain of human chemokine receptor CXCR7 (P25106 whole entry): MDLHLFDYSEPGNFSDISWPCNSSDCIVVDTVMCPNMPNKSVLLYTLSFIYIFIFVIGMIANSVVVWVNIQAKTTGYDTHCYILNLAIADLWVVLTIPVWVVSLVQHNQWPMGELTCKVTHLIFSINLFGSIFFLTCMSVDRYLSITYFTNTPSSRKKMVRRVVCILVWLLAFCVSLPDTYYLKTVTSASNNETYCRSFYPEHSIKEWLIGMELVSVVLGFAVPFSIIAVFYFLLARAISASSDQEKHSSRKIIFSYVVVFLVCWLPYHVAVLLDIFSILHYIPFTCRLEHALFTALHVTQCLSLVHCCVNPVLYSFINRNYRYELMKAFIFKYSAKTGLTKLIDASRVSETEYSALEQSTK

`O=C(N[C@@H]1CCN(C2CCCC2)C[C@H]1C(=O)NC1(c2ncccn2)CC1)c1cc(-c2c(F)cc(F)cc2F)on1` (racemic) [Example 1.176, rac-(3R*,4R*)-1-Cyclopentyl-4-{[5-(2,4,6-trifluoro-phenyl)-isoxazole-3-carbonyl]-amino}-piperidine-3-carboxylic acid (1-pyrimidin-2-yl-cyclopropyl)-amide] gave an IC50 of 6 nM.

`C[C@@H]1CCC[C@H]1N1CC[C@@H](NC(=O)c2cn(-c3ccc(F)cc3F)nn2)[C@H](C(=O)NC2(c3ccccn3)CC2)C1` (relative stereo) [Example 1.168, (3R*,4R*)-4-{[1-(2,4-Difluoro-phenyl)-1H-[1,2,3]triazole-4-carbonyl]-amino}-1-((1RS,2RS)-2-Methyl-cyclopentyl)-piperidine-3-carboxylic acid (1-pyridin-2-yl-cyclopropyl)-amide] showed an IC50 of 728 nM.

`C[C@@H]1CCC[C@H]1N1CC[C@@H](NC(=O)c2cn(-c3ccc(F)cc3F)nn2)[C@H](C(=O)N[C@H](C)c2ccccn2)C1` [Example 1.12] gave an IC50 of 789 nM.

Work on `CN(C)C(=O)[C@@H]1CN(C2CCCC2)CC[C@H]1NC(=O)c1cc(-c2ccc(F)cc2F)on1` [Example 2.019] yielded an IC50 of 126 nM.

For `O=C(N[C@@H]1CCN(CC2CC2)C[C@H]1C(=O)NC1(c2ncccn2)CC1)c1cc(-c2c(F)cccc2F)on1` (racemic) [Example 1.191, rac-(3R*,4R*)-1-Cyclopropylmethyl-4-{[5-(2,6-difluoro-phenyl)-isoxazole-3-carbonyl]-amino}-piperidine-3-carboxylic acid (1-pyrimidin-2-yl-cyclopropyl)-amide], the IC50 was 186 nM.

`O=C(N[C@@H]1CCN(CC2CC2)C[C@H]1C(=O)NC1(c2ncccn2)CC1)c1cc(-c2ccccc2C(F)(F)F)on1` [Example 1.19] showed an IC50 of 294 nM.

Molecule `C[C@@H](NC(=O)[C@H]1CN(CC2CC2)CC[C@@H]1NC(=O)c1cc(-c2c(F)cc(F)cc2F)on1)c1ccccn1` (single isomer, unassigned) [Example 1.123a, (3S,4S)-1-Cyclopropylmethyl-4-{[5-(2,4,6-trifluoro-phenyl)-isoxazole-3-carbonyl]-amino}-piperidine-3-carboxylic acid ((R)-1-pyridin-2-yl-ethyl)-amide or (3R,4R)-1-Cyclopropylmethyl-4-{[5-(2,4,6-trifluoro-phenyl)-isoxazole-3-carbonyl]-amino}-piperidine-3-carboxylic acid ((R)-1-pyridin-2-yl-ethyl)-amide] has an IC50 of 4 nM.

In the case of `O=C(N[C@H]1CCN(C2CCCC2)C[C@@H]1C(=O)NC1(c2ccccn2)CC1)c1cc(-c2c(F)cc(F)cc2F)on1` (single isomer, unassigned) [Example 1.170a, (3S,4S)-1-Cyclopentyl-4-{[5-(2,4,6-trifluoro-phenyl)-isoxazole-3-carbonyl]-amino}-piperidine-3-carboxylic acid (1-pyridin-2-yl-cyclopropyl)-amide or (3R,4R)-1-Cyclopentyl-4-{[5-(2,4,6-trifluoro-phenyl)-isoxazole-3-carbonyl]-amino}-piperidine-3-carboxylic acid (1-pyridin-2-yl-cyclopropyl)-amide], the IC50 is reported as 33 nM.

With `O=C(N[C@@H]1CCN(C2CCCCC2)C[C@H]1C(=O)NCc1ccncc1)c1cc(-c2ccc(F)cc2F)on1` [Example 1.05] the IC50 was 223 nM.

Work on `C[C@@H](NC(=O)[C@@H]1CN(C2CCCC2)CC[C@H]1NC(=O)c1cc(-c2c(F)cc(F)cc2F)on1)C1CCC1` (racemic) [Example 1.138, (3R*,4R*)-1-Cyclopentyl-4-{[5-(2,4,6-trifluoro-phenyl)-isoxazole-3-carbonyl]-amino}-piperidine-3-carboxylic acid ((R)-1-cyclobutyl-ethyl)-amide] yielded an IC50 of 816 nM.

`CN(C)C(=O)[C@@H]1CN(C2CCCCC2)CC[C@H]1NC(=O)c1nnc(-c2ccc(F)cc2F)o1` (racemic) [Example 3.003, rac-(3R*,4R*)-1-Cyclohexyl-4-{[5-(2,4-difluoro-phenyl)-[1,3,4]oxadiazole-2-carbonyl]-amino}-piperidine-3-carboxylic acid dimethylamide] gave an IC50 of 105 nM.
